According to publication PMC5920042, “KH176 Safeguards Mitochondrial Diseased Cells from Redox Stress-Induced Cell Death by Interacting with the Thioredoxin System/Peroxiredoxin Enzyme Machinery” (Scientific Reports, 2018):
Read-outs that look alike come from different tables or passages of the source.

Tests used:
[1] = system: primary human skin fibroblasts; test: Cellular superoxide detection by HEt oxidation; type: cell-based; details: 24 h compound
Procedure: The cells were seeded at a density of 3 × 10^3 cells/well into 96-wells black plates. After 24 h, the cells were incubated with different amounts of KH176(m) for 24 h. For the cellular superoxide measurements cells were then washed with M199 without phenol red and incubated with HEt (#D11347, ThermoFisher) in this same medium for 10 minutes. […] Total cellular fluorescence per well was normalized on the incubation with the probe but without compound (vehicle set as 100%). Experiments were performed at least three times with 3 wells per experiment.

P4 cell line [2] = test: GSH measurements (GSH-Glo) under BSO; type: cell-based, human; details: increasing BSO 24 h, 3 µM compound
Procedure: Cells were seeded at a density of 4 × 10^3 cells/well into 96-wells white plates (#655098, Greiner Bio-one). After 24 h the cells were treated with semi-logarithmic dilutions of BSO up to a concentration of 100 µM alone or in co-incubation with a fixed amount of the test compound. 24 h after the treatment, GSH levels were measured with the GSH-Glo™ Glutathione Assay (# V6911, Promega) according to the manufacturer instructions. Luminescence was measured on a scanning microplate reader (BMG FLUOstar Omega).

human Prdx2 = target: T1, human Prdx2 (Homo sapiens, UniProt P32119); test: Surface Plasmon Resonance binding; details: immobilized Prdx2, SPR, 0.31-5.0 µM
T1 construct: purchased Novus Biological NBC1-25855
T1 sequence (P32119 1-198): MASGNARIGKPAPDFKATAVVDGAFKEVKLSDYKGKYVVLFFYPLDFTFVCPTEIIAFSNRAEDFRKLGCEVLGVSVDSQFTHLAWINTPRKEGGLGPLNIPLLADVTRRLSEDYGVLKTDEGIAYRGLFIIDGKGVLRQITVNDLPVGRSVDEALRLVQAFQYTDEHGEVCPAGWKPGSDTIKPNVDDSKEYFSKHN
Procedure: Prior to protein immobilization all proteins were dialyzed against HBS-E (10 mM Hepes, 150 mM NaCl, 3 mM EDTA) buffer that was previously filtered through a 0.45 µM membrane using dialyze slide according to the manufacturer instruction. Human recombinant proteins peroxiredoxin 2 (Novus Biological NBC1-25855) and CCDC101 (Abcam Ab124547) were immobilized on CM5 (carboxymethylated dextran covalently attached to a gold surface) using the amine coupling method according to manufacturer’s recommendation (Biacore, GE Healthcare). Briefly the CM5 surface was activated with the mixture of EDC/NHS. Recombinant proteins at dilution 1 µg/ml in a corresponding buffer i.e. Peroxiredoxin 2 and CCDC101 in sodium acetate buffer 100 mM (pH 4.9). The control channel was activated with EDC/NHS. All channels were thereafter saturated with 0.1 M ethanolamine solution. KH176 andKH176m were solubilized in HBSS at stock solution 1 mM. They were thereafter further diluted in HBSS to final concentrations 0.31e-6M, 0.62e-6M, 1.25e-6M, 2.5e-6M and 5.0e-6M and injected over the flow cells at a flow rate equal to […] for 2 min, followed by a dissociation phase of 4 min. The sensor chip surface was regenerated with 1 mM HCl. The specific binding profiles were obtained after subtracting the response signal from the control empty channel and from blank-buffer injection. The specific binding was calculated using Biaeval 3 software (Biacore, GE Healthcare) with the postulate of 1:1 ligand/analyte interaction. Based on the Chi^2 value in regard to the Rmax (less than 10%) and the difference interval ±2.5 RU theoretic fitting compared to experimental results, best fitting algorithm between Langmuir or drifting base line was applied.

P4 cell line [3] = test: Radical-Scavenging Capacity assay (CM-H2DCFDA, H2O2 or KO2); type: cell-based, human; details: P4 cells, 100 µM H2O2 or 1 mM KO2 (text: KOH), 3 µM compound
Procedure: Cells were seeded at a density of 4 × 10^3 cells/well into 96-wells black plates. After 24 h the cells were loaded with 5 µM CM-H2DCFDA in M199 without phenol red for 20 min. The dye excess was washed with M199 without phenol red and immediately after, cells were treated acutely with different concentrations of the test compounds in M199 without phenol red. To generate radicals, 100 µM H2O2 or 1 mM KO2 were injected to the compound-treated cells and CM-DCF fluorescence was measured every 2 min for 70 cycles on a scanning microplate reader (BMG FLUOstar Omega; Ex. 480 nm, Em. 520 nm). The area under the generated curves was calculated using the Origin 6.1 software (OriginLab).

[4] = 28-day repeat oral dose toxicity study, toxicokinetics; type: in vivo, Beagle dogs; details: Beagle, dog, plasma, po; for AUC(0-t): read-out: AUC0–24 h; for Cmax: read-out: Cmax
Procedure: Pharmacokinetics and toxicokinetics measurements were performed by the commercial Contract Research Organizations Sai Life Sciences and WuXi AppTec, respectively, according to their standard protocols and in accordance with relevant guidelines and regulations. C57 BL/6 mice, Sprague Dawley rats, and Beagle dogs were studied.

[5] = system: primary human skin fibroblasts; test: Mitochondrial superoxide detection by mitoSOX oxidation; type: cell-based; details: 30 min preincubation, no external stimulus
Procedure: The cells were seeded at a density of 3 × 10^3 cells/well into 96-wells black plates. After 24 h, the cells were incubated with different amounts of KH176(m) in M199 without phenol red. This medium was used in all subsequent washes and incubations. After 30 min. incubation the cells were washed and subsequently incubated 1 µM mitoSOX (#M36008, ThermoFisher). […] After 10 min incubation the cells were washed twice and incubated for 30 min. to allow the accumulation of oxidized mitoSOX in the mitochondria. […] Wells with cells but without mitoSOX were used for background correction. Experiments were performed at least three times with 3 wells per experiment.

[6] = female, 10 mg/kg, KH176 10 mg/kg/dose BID oral, F, Day 1, plasma
[7] = female, 10 mg/kg, KH176 10 mg/kg/dose BID oral, F, Day 28, plasma
[8] = female, 25 mg/kg, KH176 25 mg/kg/dose BID oral, F, Day 1, plasma
[9] = female, 25 mg/kg, KH176 25 mg/kg/dose BID oral, F, Day 28, plasma
[10] = female, 62.5 mg/kg, KH176 62.5 mg/kg/dose BID oral, F, Day 1, plasma
[11] = female, 62.5 mg/kg, KH176 62.5 mg/kg/dose BID oral, F, Day 28, plasma
[12] = male, 10 mg/kg, KH176 10 mg/kg/dose BID oral, M, Day 1, plasma
[13] = male, 10 mg/kg, KH176 10 mg/kg/dose BID oral, M, Day 28, plasma
[14] = male, 25 mg/kg, KH176 25 mg/kg/dose BID oral, M, Day 1, plasma
[15] = male, 25 mg/kg, KH176 25 mg/kg/dose BID oral, M, Day 28, plasma
[16] = male, 62.5 mg/kg, KH176 62.5 mg/kg/dose BID oral, M, Day 1, plasma
[17] = male, 62.5 mg/kg, KH176 62.5 mg/kg/dose BID oral, M, Day 28, plasma

## Cc1c(C)c2c(c(C)c1O)CC[C@@](C)(C(=O)N[C@@H]1CCCNC1)O2.Cl [KH176, (S)-6-hydroxy-2,5,7,8-tetramethyl-N-((R)-piperidin-3-yl)chroman-2-carboxamide hydrochloride]
[1]
  Effect on basal cellular superoxide levels (HEt): no effect
P4 cell line [2]
  GSH level under BSO: remained unaffected
Human Prdx2
  Binding to Prdx2: not
P4 cell line [3]
  Reduction of H2O2-induced radicals and O2.- (CM-H2DCFDA oxidation): able to reduce the levels of both radicals
[4]; [6]
  half-life: 1.4 h
  AUC(0-t): 8.84 µg·h/mL
  Cmax: 1.15 µg/mL
[4]; [7]
  half-life: 2 h
  AUC(0-t): 14.6 µg·h/mL
  Cmax: 1.54 µg/mL
[4]; [8]
  half-life: 1.8 h
  AUC(0-t): 41.9 µg·h/mL
  Cmax: 4.15 µg/mL
[4]; [9]
  half-life: 2.5 h
  AUC(0-t): 40 µg·h/mL
  Cmax: 5.19 µg/mL
[4]; [10]
  half-life: 1.7 h
  AUC(0-t): 63.1 µg·h/mL
  Cmax: 8.15 µg/mL
[4]; [11]
  half-life: 2.3 h
  AUC(0-t): 85.5 µg·h/mL
  Cmax: 10.2 µg/mL
[4]; [12]
  half-life: 1.4 h
  AUC(0-t): 16.4 µg·h/mL
  Cmax: 2.03 µg/mL
[4]; [13]
  half-life: 1.8 h
  AUC(0-t): 19 µg·h/mL
  Cmax: 2.33 µg/mL
[4]; [14]
  half-life: 1.8 h
  AUC(0-t): 42.6 µg·h/mL
  Cmax: 4.29 µg/mL
[4]; [15]
  half-life: 2 h
  AUC(0-t): 39.9 µg·h/mL
  Cmax: 4.54 µg/mL
[4]; [16]
  half-life: 1.8 h
  AUC(0-t): 91.5 µg·h/mL
  Cmax: 10.1 µg/mL
[4]; [17]
  half-life: 2.4 h
  AUC(0-t): 102 µg·h/mL
  Cmax: 12.6 µg/mL
[5]
  Potency on mitochondrial superoxide levels (mitoSOX): much less potent
